Source: patent US11549123B2, “Plant EPSP synthases and methods of use” (PIONEER HI-BRED INTERNATIONAL, INC., priority 2015, dated 2023)
Residue numbers refer to the chain shown, from its start.

Tests used:
[1] = biological target: T1, Zea mays EPSPS variant P107L (Zea mays, UniProt O24566, P106L); assay: EPSPS substrate saturation kinetics, P107L
T1 sequence (O24566 with tags, fused parts or gaps P106L): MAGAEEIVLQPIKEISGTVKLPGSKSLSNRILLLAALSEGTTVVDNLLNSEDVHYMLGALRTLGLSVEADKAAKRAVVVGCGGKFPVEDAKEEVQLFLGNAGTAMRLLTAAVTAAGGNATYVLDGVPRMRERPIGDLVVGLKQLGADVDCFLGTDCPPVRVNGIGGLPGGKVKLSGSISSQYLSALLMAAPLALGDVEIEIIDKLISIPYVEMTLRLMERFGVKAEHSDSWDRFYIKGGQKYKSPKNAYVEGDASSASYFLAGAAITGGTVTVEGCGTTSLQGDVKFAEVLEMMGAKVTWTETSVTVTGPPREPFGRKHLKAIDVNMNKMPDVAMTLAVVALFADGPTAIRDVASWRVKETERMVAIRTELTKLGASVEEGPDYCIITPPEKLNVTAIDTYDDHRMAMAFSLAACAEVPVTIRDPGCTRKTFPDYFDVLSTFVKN

[2] = biological target: T2, Zea mays EPSPS variant G-W at positions 103-107 (EPSPS-TGPW; T103G P107W) (Zea mays, UniProt O24566, P106W/T102G); assay: EPSPS substrate saturation kinetics, maize variant 103G 107W (EPSPS-TGPW); type: biochemical
T2 sequence (O24566 with tags, fused parts or gaps T102G/P106W): T1 sequence (O24566 with tags, fused parts or gaps P106L) with T103G, L107W
Method: (§1) EPSPS activity was determined by quantifying the phosphate generated from the EPSPS reaction. Release of inorganic phosphate was coupled to reaction with 2-amino-6-mercapto-7-methylpurine ribonucleoside, catalyzed by purine-nucleoside phosphorylase (M R Webb, Proc. Natl. Acad. Sci. 89:4884-4887, 1992). The absorbance change that occurs was monitored at 360 nm, where the extinction is 11,200 M^−1 cm^−1, with a Spectramax plate reader (Molecular Devices). To determine kinetic parameters, the varied substrate was present at seven concentrations (the eighth being the blank, containing no substrate) ranging from 4 to 400 uM and the unvaried substrate present at saturation. Six microliters of 50-fold concentrated stock solutions of the varied substrate were placed in the wells of the 96-well assay plate and reactions were started with the addition of a mixture containing 25 mM Hepes, pH 7, 100 mM KCl, 0.3 mM 2-amino-6-mercapto-7-methylpurine ribonucleosde, 1 uM (1 unit/ml) purine-nucleoside phosphorylase (Sigma N8264) and 200 uM of the non-varied substrate. Reactions were monitored with a Spectramax plate reader. The Michaelis-Menten kinetics protocol of the Spectramax software was customized for the substrate concentrations used. The software returns values of KM and Vmax using the Lineweaver-Burke transformation of the Michaelis-Menten equation. To determine kcat, Vmax (uM/min) was divided by the enzyme concentration (uM). […] KI was then calculated from the following form of the Michaelis-Menten equation for competitive inhibition: KI=KM[I]/(KM app−KM) KM approximates the dissociation constant of the enzyme-substrate complex while kcat is the rate of conversion of substrate to product when the substrate concentration is saturating. kcat/KM is a widely accepted parameter for catalytic efficiency when substrate concentration is low (˜KM). […] The parameter kcat/KM×KI is used to quantify both catalytic efficiency and insensitivity and thus the overall fitness of the enzyme.
(§2) NNK-enabled saturation mutagenesis was performed at positions 103 and 107 in the maize EPSPS sequence, and transformed BL21 DE3 cells were screened as described above.

[3] = system: Zea mays EPSPS variant G-W at positions 103-107 (EPSPS-TGPW; T103G P107W); assay: as above; type: biochemical
Method: as §1, §2

[4] = biological target: T3, Zea mays EPSPS variant L-T at positions 103-107 (Zea mays, UniProt O24566, P106T/T102L); assay: EPSPS substrate saturation kinetics, maize variant 103L 107T; type: biochemical
T3 sequence (O24566 with tags, fused parts or gaps T102L/P106T): T1 sequence (O24566 with tags, fused parts or gaps P106L) with T103L, L107T
Method: as §1, with “enzyme. […]” for “enzyme.”

[5] = biological target: T4, Zea mays EPSPS variant V-G at positions 103-107 (Zea mays, UniProt O24566, P106G/T102V); assay: EPSPS substrate saturation kinetics, maize variant 103V 107G; type: biochemical
T4 sequence (O24566 with tags, fused parts or gaps T102V/P106G): T1 sequence (O24566 with tags, fused parts or gaps P106L) with T103V, L107G
Method: as §1, with “enzyme. […]” for “enzyme.”

[6] = PEP as substrate, glyphosate as inhibitor

Work on `C=C(OP(=O)(O)O)C(=O)O` [PEP, phosphoenolpyruvate] yielded a kcat/KM ([1]; PEP) of 22.1 min^−1uM^−1, a kcat ([1]; PEP varied) of 24.2 s⁻¹ and a kcat ([2]; PEP varied) of 379. For the same compound, the “catalytic efficiency (kcat/KM) relative to native maize EPSPS” value ([3]; PEP) was 5%, the “higher KM for PEP” value ([3]; relative to native maize EPSPS) was 5 fold and the lower kcat ([3]; relative to native maize EPSPS) was 4 fold. It also gave a kcat ([4]; PEP varied) of 184 and a kcat ([5]; PEP varied) of 324.
With `O=C(O)CNCP(=O)(O)O` [glyphosate, N-phosphonomethylglycine] the Ki ([1]; KI (glyphosate), competitive with PEP) was 3.6 µM, the Ki ([1]; Ki, substrate saturation, Zm-P107L) was 3.05 µM and the “(kcat/KM)*KI” value [1, 6] was 79. The “(kcat/KM)*KI” value ([1]; substrate saturation, Zm-P107L) was 70, the Ki [2] was 403 µM and the “(kcat/KM)*KI” value [2, 6] was 1862. For the same compound, the “less sensitive to glyphosate” value ([3]; relative to native maize EPSPS) was “about 3,000 fold”, the Ki [4] was 289 µM and the “(kcat/KM)*KI” value [4, 6] was 1163. For the same compound, the Ki [5] was 480 µM and the “(kcat/KM)*KI” value [5, 6] was 1170.
